The source of these data is US8765733B2, “Amine substituted methanesulfonamide derivatives as vanilloid receptor ligands” (Gruenenthal GmbH, priority 2011, dated 2014).

Usually Ki stands for the equilibrium dissociation constant of an inhibitor or competing ligand from its target. As a reminder, the inhibition is how much of the control response was suppressed.

For this assay, the target named is vanilloid receptor 1 (VR1/TRPV1 receptor) (Homo sapiens, UniProt Q8NER1). Briefly: FLIPR functional assay (Ca2+ influx, capsaicin) on the vanilloid receptor 1. Type of assay: cell-based. Particulars: capsaicin (Cap) stimulus; for Ki: functional (f), Ki from IC50 by Cheng-Prusoff, read-out: (f) Ki (human being) [nM] Cap.

Regarding `NS(=O)(=O)NCc1ccc(CCC(=O)NCc2ccc(C(F)(F)F)nc2N2CCCC2)cc1` [Example 56, 1-{[2-pyrrolidin-1-yl-6-(trifluoromethyl)pyridin-3-yl]methyl}-3-{4-[(sulfamoylamino)methyl]phenyl}propanamide], the Ki came out at 38 nM.
Turning to `CC1CCN(c2nc(C(F)(F)F)ccc2CNC(=O)C(C)c2ccc(CNS(C)(=O)=O)c(Cl)c2)CC1` (stereo not drawn) [Example 46, 2-(3-chloro-4-(methylsulfonamidomethyl)phenyl)-N-((2-(4-methylpiperidin-1-yl)-6-(trifluoromethyl)pyridin-3-yl)methyl)propanamide], the Ki turned out to be 5 nM.
The same measure, in the same setting: for `COc1cc(NC(=O)NCc2ccc(C(F)(F)F)nc2N2CCC(C)CC2)ccc1CNS(C)(=O)=O` [Example 49, N-(2-methoxy-4-(3-((2-(4-methylpiperidin-1-yl)-6-(trifluoromethyl)pyridin-3-yl)methyl)ureido)benzyl)methanesulfonamide] the value was 12 nM.
With `CCNc1nc(C(F)(F)F)ccc1CNC(=O)C(C)c1ccc(CNS(C)(=O)=O)c(F)c1` (stereo not drawn) [Example 8, N-((2-(ethylamino)-6-(trifluoromethyl)pyridin-3-yl)methyl)-2-(3-fluoro-4-(methylsulfonamidomethyl)phenyl)propanamide], the inhibition at 5 µM (compound at 5 μM, read-out: inhibition (as a percentage) Cap, (human being)) came to 71%.
Regarding `NS(=O)(=O)NCc1ccc(NC(=O)NCc2ccc(C(F)(F)F)nc2N2CCCC2)cc1F` [Example 60, 1-{3-fluoro-4-[(sulfamoylamino)methyl]phenyl}-3-{[2-pyrrolidin-1-yl-6-(trifluoromethyl)pyridin-3-yl]methyl}urea], the Ki was 20 nM.
Still for that read-out and setting: for `CS(=O)(=O)NCc1ccc(NC(=O)NCc2ccc(C(F)(F)F)nc2N2CCCC2)cc1` [Example 4, N-(4-(3-((2-(pyrrolidin-1-yl)-6-(trifluoromethyl)pyridin-3-yl)methyl)ureido)benzyl)methanesulfonamide] the value was 26 nM; for `CC1CCN(c2nc(C(F)(F)F)ccc2CNC(=O)C(C)c2ccc(CNS(C)(=O)=O)c(F)c2)CC1` (stereo not drawn) [Example 30, 2-(3-fluoro-4-(methylsulfonamidomethyl)phenyl)-N-((2-(4-methylpiperidin-1-yl)-6-(trifluoromethyl)pyridin-3-yl)methyl)propanamide], 8 nM.
As for `CC1CCN(c2nc(C(F)(F)F)ccc2CNC(=O)Cc2ccc(CNS(C)(=O)=O)c(F)c2)CC1` [Example 25], the inhibitory constant (Ki) is 4 nM.
Consider `CCS(=O)(=O)NCc1ccc(C(C)C(=O)NCc2ccc(C(F)(F)F)nc2N2CCCC2)cc1F` (stereo not drawn) [Example 54, 2-(4-(ethylsulfonamidomethyl)-3-fluorophenyl)-N-((2-(pyrrolidin-1-yl)-6-(trifluoromethyl)pyridin-3-yl)methyl)propanamide], for which the Ki worked out at 76 nM.
`CC1CCN(c2nc(C(F)(F)F)ccc2CNC(=O)C(C)c2ccc(CNS(N)(=O)=O)c(F)c2)CC1` (stereo not drawn) [Example 64, 2-(3-fluoro-4-((sulfamoylamino)methyl)phenyl)-N-((2-(4-methylpiperidin-1-yl)-6-(trifluoromethyl)pyridin-3-yl)methyl)propanamide]: the Ki turned out to be 4 nM.
Take `CC1CCN(c2nc(C(F)(F)F)ccc2CNC(=O)Nc2ccc(CNS(C)(=O)=O)c(F)c2)CC1` [Example 24, N-(2-fluoro-4-(3-((2-(4-methylpiperidin-1-yl)-6-(trifluoromethyl)pyridin-3-yl)methyl)ureido)benzyl)methanesulfonamide]: the Ki is 5 nM.
In the case of `Cc1cc(NC(=O)NCc2ccc(C(F)(F)F)nc2N2CCCC2)ccc1CNS(C)(=O)=O` [Example 52, N-(2-methyl-4-(3-((2-(pyrrolidin-1-yl)-6-(trifluoromethyl)pyridin-3-yl)methyl)ureido)benzyl)methanesulfonamide], the inhibition constant Ki is 46 nM.
